Laboratory results from US11713338B2, “Cyclic peptides multimers targeting α-4-β-7 integrin” (priority 2016, dated 2023).

Tests used:
[1] = target: T1, integrin α4β7 (RPMI8866 human cells adhering to MAdCAM-1) (Homo sapiens, UniProt P13612+P26010); assay: Integrin α4β7-MAdCAM cell adhesion assay (RPMI8866 cells); assay type: cell-based; details: RPMI8866 cells adhering to MAdCAM; read-out: RPMI8866 Adhesion α4β7/MAdCAM IC50
T1 construct: RMP18866 cells, which express integrin α4β7; host or cells: RPMI8866
T1 sequence (P13612 34-1032): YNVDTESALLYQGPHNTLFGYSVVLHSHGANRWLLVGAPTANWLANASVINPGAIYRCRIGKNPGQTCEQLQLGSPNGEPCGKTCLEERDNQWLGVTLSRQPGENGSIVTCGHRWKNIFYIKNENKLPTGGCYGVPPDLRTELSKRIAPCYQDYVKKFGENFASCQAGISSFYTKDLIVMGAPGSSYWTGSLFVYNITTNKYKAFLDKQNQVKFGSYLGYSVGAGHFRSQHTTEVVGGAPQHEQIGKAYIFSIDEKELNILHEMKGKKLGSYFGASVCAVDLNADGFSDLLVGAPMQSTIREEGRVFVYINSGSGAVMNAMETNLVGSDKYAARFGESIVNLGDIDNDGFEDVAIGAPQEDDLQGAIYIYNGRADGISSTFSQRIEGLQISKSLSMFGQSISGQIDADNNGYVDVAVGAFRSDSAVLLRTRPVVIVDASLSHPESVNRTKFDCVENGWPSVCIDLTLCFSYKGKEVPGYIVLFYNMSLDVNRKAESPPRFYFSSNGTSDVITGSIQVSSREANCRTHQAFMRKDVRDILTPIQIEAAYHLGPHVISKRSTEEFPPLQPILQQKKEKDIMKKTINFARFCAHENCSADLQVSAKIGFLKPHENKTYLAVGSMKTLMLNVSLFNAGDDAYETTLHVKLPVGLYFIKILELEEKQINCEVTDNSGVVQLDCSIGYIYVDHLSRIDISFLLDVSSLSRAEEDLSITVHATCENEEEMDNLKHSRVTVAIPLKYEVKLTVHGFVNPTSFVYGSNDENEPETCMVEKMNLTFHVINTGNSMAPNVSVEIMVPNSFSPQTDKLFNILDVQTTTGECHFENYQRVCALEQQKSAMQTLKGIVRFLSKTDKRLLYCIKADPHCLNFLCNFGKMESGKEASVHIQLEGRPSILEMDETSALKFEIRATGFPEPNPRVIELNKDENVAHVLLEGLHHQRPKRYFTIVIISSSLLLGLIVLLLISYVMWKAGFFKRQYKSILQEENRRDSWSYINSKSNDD
T1 sequence (P26010 20-798): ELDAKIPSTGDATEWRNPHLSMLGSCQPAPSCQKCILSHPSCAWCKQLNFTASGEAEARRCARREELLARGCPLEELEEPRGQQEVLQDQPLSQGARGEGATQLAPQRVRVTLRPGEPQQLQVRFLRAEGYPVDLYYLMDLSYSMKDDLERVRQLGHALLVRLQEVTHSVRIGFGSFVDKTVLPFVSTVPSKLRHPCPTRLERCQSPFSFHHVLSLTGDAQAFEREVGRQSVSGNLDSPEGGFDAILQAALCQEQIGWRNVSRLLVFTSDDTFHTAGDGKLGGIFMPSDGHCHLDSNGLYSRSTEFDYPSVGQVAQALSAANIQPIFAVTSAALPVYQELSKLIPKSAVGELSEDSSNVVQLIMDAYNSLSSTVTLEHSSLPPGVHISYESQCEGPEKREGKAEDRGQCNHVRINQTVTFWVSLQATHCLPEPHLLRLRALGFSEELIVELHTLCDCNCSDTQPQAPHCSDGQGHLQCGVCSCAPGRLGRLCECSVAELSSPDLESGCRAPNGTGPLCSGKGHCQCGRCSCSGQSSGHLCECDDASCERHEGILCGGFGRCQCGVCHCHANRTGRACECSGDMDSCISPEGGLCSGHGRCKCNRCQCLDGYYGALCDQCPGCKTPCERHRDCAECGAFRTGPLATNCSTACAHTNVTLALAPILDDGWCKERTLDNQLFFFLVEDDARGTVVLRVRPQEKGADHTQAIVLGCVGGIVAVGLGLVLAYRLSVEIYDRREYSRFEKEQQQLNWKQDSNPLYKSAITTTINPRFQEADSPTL
Procedure: Integrin α4β7-MAdCAM Cell Adhesion Assay
RPMI8866 cells were resuspended at 10 million cells/ml in PBS containing […] and incubated at 37° C. for 30 min in a 50 ml tube. […] The plate was emptied by inverting and blotting on paper towels and washed manually twice with PBS. 100 μl PBS was then added to each well. […] To calculate the dose response, the fluorescence value of control wells not containing cells was subtracted from each test well.

[2] = target: T2, recombinant integrin α4β7 (Homo sapiens, UniProt P13612+P26010, DEL724-798); assay: Integrin α4β7—MAdCAM-1 ELISA competition assay; assay type: binding; details: for ELISA Assay Ratio b1/b7: ratio of a4b1 to a4b7 ELISA IC50; for IC50: read-out: ELISA a4b7 Assay IC50
T2 construct: purchased R&D Systems 5397-A3-050
T2 sequence (P13612 34-970 limits assumed): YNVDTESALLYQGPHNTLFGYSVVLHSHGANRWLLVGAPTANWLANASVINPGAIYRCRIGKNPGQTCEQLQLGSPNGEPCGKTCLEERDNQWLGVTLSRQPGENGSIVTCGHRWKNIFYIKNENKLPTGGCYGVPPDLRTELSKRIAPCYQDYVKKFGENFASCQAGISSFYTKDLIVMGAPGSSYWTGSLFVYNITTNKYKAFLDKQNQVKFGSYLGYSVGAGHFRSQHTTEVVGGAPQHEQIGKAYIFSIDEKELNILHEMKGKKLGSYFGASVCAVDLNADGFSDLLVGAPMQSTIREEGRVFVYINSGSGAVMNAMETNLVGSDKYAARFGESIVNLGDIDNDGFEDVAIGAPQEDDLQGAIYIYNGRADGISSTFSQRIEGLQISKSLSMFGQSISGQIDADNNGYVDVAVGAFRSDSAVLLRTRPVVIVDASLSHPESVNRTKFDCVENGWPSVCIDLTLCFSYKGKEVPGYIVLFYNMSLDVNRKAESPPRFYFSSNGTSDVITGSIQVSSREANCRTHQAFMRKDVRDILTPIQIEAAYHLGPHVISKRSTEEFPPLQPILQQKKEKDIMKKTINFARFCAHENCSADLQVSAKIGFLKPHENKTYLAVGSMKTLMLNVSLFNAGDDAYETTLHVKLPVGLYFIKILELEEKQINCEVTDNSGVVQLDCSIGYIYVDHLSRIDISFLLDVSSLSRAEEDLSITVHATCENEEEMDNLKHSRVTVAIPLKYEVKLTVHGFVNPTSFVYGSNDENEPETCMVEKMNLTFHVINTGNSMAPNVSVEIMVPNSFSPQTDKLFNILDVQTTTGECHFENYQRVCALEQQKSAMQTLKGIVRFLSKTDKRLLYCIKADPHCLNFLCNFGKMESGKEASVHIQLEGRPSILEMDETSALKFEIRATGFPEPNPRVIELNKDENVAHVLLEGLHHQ
T2 sequence (P26010 20-723 limits assumed): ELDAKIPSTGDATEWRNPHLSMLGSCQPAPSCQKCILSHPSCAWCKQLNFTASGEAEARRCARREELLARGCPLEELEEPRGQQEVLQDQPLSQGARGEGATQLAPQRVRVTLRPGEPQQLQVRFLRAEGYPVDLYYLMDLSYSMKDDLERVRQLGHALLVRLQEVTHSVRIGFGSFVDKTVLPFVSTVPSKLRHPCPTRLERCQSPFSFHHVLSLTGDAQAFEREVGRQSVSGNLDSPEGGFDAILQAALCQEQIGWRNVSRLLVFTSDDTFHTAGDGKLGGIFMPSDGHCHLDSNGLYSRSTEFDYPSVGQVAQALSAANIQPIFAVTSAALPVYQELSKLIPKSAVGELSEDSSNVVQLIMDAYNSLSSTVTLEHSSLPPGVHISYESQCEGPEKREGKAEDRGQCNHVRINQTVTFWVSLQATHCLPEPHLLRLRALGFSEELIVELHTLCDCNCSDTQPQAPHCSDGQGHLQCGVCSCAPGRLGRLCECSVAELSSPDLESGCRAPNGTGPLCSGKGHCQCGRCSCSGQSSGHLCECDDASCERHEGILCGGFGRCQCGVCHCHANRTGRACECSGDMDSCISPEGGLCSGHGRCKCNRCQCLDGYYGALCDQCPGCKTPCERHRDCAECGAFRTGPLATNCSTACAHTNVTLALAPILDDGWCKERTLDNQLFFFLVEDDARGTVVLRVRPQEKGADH

[3] = target: T3, recombinant integrin α4β1 (Homo sapiens, UniProt P05556+P13612); assay: Integrin α4β1—VCAM-1 competition ELISA; assay type: binding; details: read-out: ELISA a4b1 Assay IC50
T3 construct: purchased R&D Systems 5397-A3-050
T3 sequence (P05556 21-728 limits assumed, one chain of several): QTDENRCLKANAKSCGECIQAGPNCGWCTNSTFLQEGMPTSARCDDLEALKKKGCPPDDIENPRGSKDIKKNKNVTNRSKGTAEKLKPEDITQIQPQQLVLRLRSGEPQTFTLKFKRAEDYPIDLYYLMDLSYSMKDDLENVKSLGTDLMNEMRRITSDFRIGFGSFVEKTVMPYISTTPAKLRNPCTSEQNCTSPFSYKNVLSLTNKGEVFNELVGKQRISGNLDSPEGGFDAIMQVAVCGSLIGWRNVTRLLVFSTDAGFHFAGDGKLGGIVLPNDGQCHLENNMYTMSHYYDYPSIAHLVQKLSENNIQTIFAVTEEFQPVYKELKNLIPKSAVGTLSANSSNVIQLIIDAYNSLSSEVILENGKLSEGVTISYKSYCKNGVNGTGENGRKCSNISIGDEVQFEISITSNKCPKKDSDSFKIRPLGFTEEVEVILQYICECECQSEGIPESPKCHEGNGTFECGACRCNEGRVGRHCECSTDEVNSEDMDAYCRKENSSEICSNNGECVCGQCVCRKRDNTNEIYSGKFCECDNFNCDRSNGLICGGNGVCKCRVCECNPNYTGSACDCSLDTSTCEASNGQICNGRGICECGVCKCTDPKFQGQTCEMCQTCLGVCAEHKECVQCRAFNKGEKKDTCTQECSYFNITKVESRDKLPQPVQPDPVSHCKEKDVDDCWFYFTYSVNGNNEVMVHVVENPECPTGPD
In short: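 Compound dilutions added to coated plate and shaken at room temperature for 2 h (300 rpm) to binding equilibrium. Wash buffer: 50 mM Tris, 100 mM NaCl, 1 mM MnCl2, 0.05% Tween. Bound Fc-tagged ligand detected with anti-human IgG Fc-HRP, 1 h at room temperature.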

Structure (SMILES) | IC50 [1] [nM] | ELISA Assay Ratio b1/b7 [2] | IC50 [2] [nM] | IC50 [3] [nM]
CC(C)C[C@@H]1NC(=O)[C@H]2CCCCN2C(=O)[C@H](Cc2ccc(CNC(=O)CCCCCC(=O)NCc3ccc(C[C@@H]4NC(=O)[C@@H]5CCCN5[C@H](C(=O)NC(C)(C)C)[C@H](C)NC(=O)[C@H]([C@@H](C)O)NC(=O)[C@H](CC(=O)O)NC(=O)[C@H](CC(C)C)NC(=O)[C@H]5CCCCN5C4=O)cc3)cc2)NC(=O)[C@@H]2CCCN2[C@H](C(=O)NC(C)(C)C)[C@H](C)NC(=O)[C@H]([C@@H](C)O)NC(=O)[C@H](CC(=O)O)NC1=O [Compound 524] | 447 | – | – | –
CC(C)C[C@@H]1NC(=O)c2ccc(-c3ccc(N4CCN(C(=O)CCCCCCC(=O)N5CCN(c6ccc(-c7ccc8cc7CNC(=O)[C@@H]7CCCN7[C@H](C(=O)NC(C)(C)C)[C@H](C)NC(=O)[C@H]([C@@H](C)O)NC(=O)[C@H](CC(=O)O)NC(=O)[C@H](CC(C)C)NC8=O)cc6)CC5)CC4)cc3)c(c2)CNC(=O)[C@@H]2CCCN2[C@H](C(=O)NC(C)(C)C)[C@H](C)NC(=O)[C@H]([C@@H](C)O)NC(=O)[C@H](CC(=O)O)NC1=O [Compound 487] | 65 | – | – | –
CC(C)C[C@@H]1NC(=O)[C@H]2CCCCN2C(=O)[C@H](Cc2ccc(CNC(=O)CCCCC(=O)NCc3ccc(C[C@@H]4NC(=O)[C@@H]5CCCN5[C@H](C(=O)NC(C)(C)C)[C@H](C)NC(=O)[C@H]([C@@H](C)O)NC(=O)[C@H](CC(=O)O)NC(=O)[C@H](CC(C)C)NC(=O)[C@H]5CCCCN5C4=O)cc3)cc2)NC(=O)[C@@H]2CCCN2[C@H](C(=O)NC(C)(C)C)[C@H](C)NC(=O)[C@H]([C@@H](C)O)NC(=O)[C@H](CC(=O)O)NC1=O [Compound 523] | 434 | – | – | –
CC(C)C[C@@H]1NC(=O)c2ccc(-c3ccc(N4CCN(C(=O)c5ccc(C(=O)N6CCN(c7ccc(-c8ccc9cc8CNC(=O)[C@@H]8CCCN8[C@H](C(=O)NC(C)(C)C)[C@H](C)NC(=O)[C@H]([C@@H](C)O)NC(=O)[C@H](CC(=O)O)NC(=O)[C@H](CC(C)C)NC9=O)cc7)CC6)c6ccccc56)CC4)cc3)c(c2)CNC(=O)[C@@H]2CCCN2[C@H](C(=O)NC(C)(C)C)[C@H](C)NC(=O)[C@H]([C@@H](C)O)NC(=O)[C@H](CC(=O)O)NC1=O [Compound 463] | 21 | – | – | –
CC[C@@H](C)[C@@H]1NC(=O)[C@H](CC(=O)O)NC(=O)[C@H](CC(C)C)NC(=O)C[C@H](CCCCN)NC(=O)[C@H](Cc2ccc(CN)cc2)NC(=O)[C@@H]2CCCN2[C@H](C(=O)NC(C)(C)C)[C@H](C)NC1=O [Compound 285] | – | 6.2 | 89 | 553
CC(C)C[C@@H]1NC(=O)[C@@H](CCCNC(=N)N)N(C)C(=O)[C@H](Cc2ccc(O)cc2)NC(=O)[C@@H]2CCCN2[C@H](C(=O)NC(C)(C)C)[C@H](C)NC(=O)[C@H]([C@@H](C)O)NC(=O)[C@H](CC(=O)O)NC1=O [Compound 157] | – | 55.3 | 67 | 3710
CC(C)C[C@@H]1NC(=O)C[C@H](CCCCN)NC[C@H](Cc2ccc(CN)cc2)NC(=O)[C@@H]2CCCN2[C@H](C(=O)NC(C)(C)C)[C@H](C)NC(=O)[C@H]([C@@H](C)O)NC(=O)[C@H](CC(=O)O)NC1=O [Compound 218] | – | 16.5 | 190 | 3130
CO[C@H](C)[C@@H]1NC(=O)[C@H](CC(=O)O)NC(=O)[C@H](CC(C)C)NC(=O)[C@H](Cc2ccccc2)NC(=O)[C@@H]2CCCN2[C@H](C(=O)NC(C)(C)C)[C@H](C)NC1=O [Compound 40] | – | 1.9 | 63 | 119
CC(C)C[C@@H]1NC(=O)C[C@H](CCCCN)NC(=O)C2(CCNCC2)NC(=O)[C@@H]2CCCN2[C@H](C(=O)NC(C)(C)C)[C@H](C)NC(=O)[C@H]([C@@H](C)O)NC(=O)[C@H](CC(=O)O)NC1=O [Compound 275] | – | 7.7 | 101 | 779
